We go through 13 molecules from ChEMBL document CHEMBL1201862, “PubChem BioAssay data set” (2004).

Holding throughout (assay): growth of human tumour cells (NCI), 48 h
Assay [1] has as its system CAKI-1.
Assay [2] relates to CCRF-CEM.
The subject of assay [3] is DU-145.
The subject of assay [4] is HL-60.
Assay [5] has as its system HOP-62.
Assay [6] concerns KM12.
Assay [7] concerns LOX IMVI.
The test system of assay [8] is MDA-N.
In assay [9] the test system is MOLT-4.
The test system of assay [10] is NCI-H522.
Assay [11] concerns OVCAR-3.
The subject of assay [12] is PC-3.
Assay [13] relates to SK-MEL-5.
In assay [14] the test system is SN12C.
For assay [15], the system named is T47D.
The subject of assay [16] is TK-10.

SMILES strings stand for the structures.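 These data come from cells grown in 96-well plates and exposed to compound for 48 hours at five concentrations. Abbreviation: GI50, concentration required for 50% inhibition of growth.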 Activity calls are given as the source filed them. No stated cut-off is given here; in the data, active = GI50 up to about 1.1 µM and inactive = higher.

With `OCC1OC(n2cnc3c2N=CNC[C@H]3O)C(Cl)C1O` (stereo partly drawn), the GI50 in assay [1], in assay [2], in assay [3], in assay [4], in [5] and in [6] was > 100 µM (inactive) each time. In addition, the GI50 in assay [7] was > 100 µM (inactive); in [8] it was > 100 µM (inactive); in assay [9] it was 94.2 µM (inactive); in assay [10], > 100 µM (inactive); in [11], > 100 µM (inactive); in assay [12], > 100 µM (inactive). The GI50 in [13], in assay [14], in assay [15] and in assay [16] was > 100 µM (inactive) in each case.
With `O=C(ON=C1c2ccccc2C(Br)C(Br)c2ccccc21)c1ccccc1` (stereo not drawn), the GI50 is 9.48 µM (inactive) in [1]; 0.673 µM (active) in assay [2]; 17.5 µM (inactive) in assay [3]; 0.59 µM (active) in assay [4]; 12.7 µM (inactive) in assay [5]; 17.9 µM (inactive) in [6]. Moreover, the GI50 in assay [7] was 4.28 µM (inactive); in [8] it was 17.8 µM (inactive); in [9], 2.04 µM (inactive); in [10], 1.69 µM (inactive); in assay [11] it was 14.8 µM (inactive); in [12] it was 19.8 µM (inactive). The GI50 in assay [13] was 17.1 µM (inactive); in assay [14] it was 20.7 µM (inactive); in assay [15], 9.57 µM (inactive); in assay [16] it was 15.8 µM (inactive).
As for `O=c1/c(=C/c2ccccn2)sc2nc3cc4c(cc3n12)OCCO4`, the GI50 in assay [1], in assay [2], in assay [3], in assay [5], in assay [6] and in assay [7] was > 100 µM (inactive) throughout. Moreover, the GI50 in assay [8], in [9], in [10], in assay [11], in assay [12] and in [13] was > 100 µM (inactive) in each case. Also, the GI50 in assay [14], in assay [15] and in [16] was > 100 µM (inactive) throughout.
Regarding `CC(O)(/C=C/c1ccccc1)P(=O)(O)c1ccccc1` (stereo not drawn), the GI50 in [1], in assay [3], in assay [4], in [5], in assay [6] and in [7] was > 100 µM (inactive) in each case. Moreover, the GI50 in assay [8], in assay [10], in assay [11], in assay [12], in [13] and in [14] was > 100 µM (inactive) throughout. Further, the GI50 in assay [15] and in assay [16] was > 100 µM (inactive) each time.
Take `Cc1ccc(S(=O)(=O)Oc2cc(S(=O)(=O)O)cc3cc(S(=O)(=O)O)cc(N)c23)cc1`: the GI50 in [1], in [2], in assay [3], in [4], in assay [5] and in assay [6] was > 100 µM (inactive) each time. Besides, the GI50 in [7], in assay [8], in [10], in [11], in [12] and in assay [13] was > 100 µM (inactive) in each case. For the same molecule, the GI50 in [14], in assay [15] and in assay [16] was > 100 µM (inactive) in each case.
Regarding `Cc1ccc(/N=C2\C(=N/c3ccc(C)cc3)N(c3ccc(C)cc3)C(=S)N2C(=O)c2ccccc2)cc1`, the GI50 in assay [1], in assay [3], in [5], in assay [6], in assay [8] and in assay [9] was > 100 µM (inactive) in each case. Further, the GI50 in assay [10] was 43.8 µM (inactive); in assay [11], > 100 µM (inactive); in assay [12], > 100 µM (inactive); in [13], > 100 µM (inactive); in [14], > 100 µM (inactive); in assay [15], > 100 µM (inactive). The GI50 in assay [16] is > 100 µM (inactive).
Turning to `CN(C)Cc1cc(C(=O)/C=C/c2ccc(Cl)c(Cl)c2)cc(CN(C)C)c1O`, the GI50 in assay [1] is 1.13 µM (inactive); in [2], 1.89 µM (inactive); in assay [3], 4.84 µM (inactive); in assay [4], 0.826 µM (active); in assay [5], 2.24 µM (inactive); in [6], 1.82 µM (inactive). Moreover, the GI50 in assay [7] is 0.716 µM (active); in [8] it was 3.08 µM (inactive); in assay [9] it was 3.18 µM (inactive); in assay [10] it was 1.56 µM (inactive); in [11], 1.59 µM (inactive); in assay [12], 1.96 µM (inactive). The values for the GI50 in [13], in assay [14] and in assay [15] were 1.6 µM (inactive), 2.25 µM (inactive) and 4.41 µM (inactive), respectively.
On to `CC1(C)OC2C(CO)OC(n3cnc(N)nc3=O)C2O1` (stereo not drawn), for which the GI50 in assay [1], in assay [2], in [3], in [4], in assay [5] and in [7] was > 100 µM (inactive) in each case. For the same molecule, the GI50 in [8], in assay [9], in assay [10], in assay [11], in assay [12] and in [13] was > 100 µM (inactive) in each case. The GI50 in assay [14], in assay [15] and in assay [16] was > 100 µM (inactive) each time.
Take `CC1(C)CCCCCCCCCC(C)(CCCO)C1=O` (stereo not drawn): the GI50 in [1] was 17.7 µM (inactive); in [2], 28.9 µM (inactive); in [3], 17.2 µM (inactive); in assay [4], 19.7 µM (inactive); in assay [5], 16.6 µM (inactive); in assay [6], 18.4 µM (inactive). In addition, the GI50 is 17.6 µM (inactive) in assay [7]; 16.4 µM (inactive) in [8]; 14.1 µM (inactive) in [9]; 15.4 µM (inactive) in [10]; 19.6 µM (inactive) in assay [11]; 14 µM (inactive) in assay [12]. In addition, the GI50 in [13] is 17.5 µM (inactive); in assay [14], 18.2 µM (inactive); in assay [15] it was 15.6 µM (inactive).
Turning to `COc1ccc2c(=O)c3cc([N+](=O)[O-])ccc3n(C)c2c1`, the GI50 in assay [1], in assay [2], in assay [3], in assay [4], in [6] and in assay [7] was > 100 µM (inactive) each time. Also, the GI50 in [8], in [9], in assay [10], in assay [11], in assay [12] and in assay [13] was > 100 µM (inactive) each time. Further, the GI50 in assay [14], in [15] and in assay [16] was > 100 µM (inactive) each time.
As to `COC(=O)c1c(OC(C)=O)ccc2c1c1c(OC(C)=O)c3ccccc3c(OC(C)=O)c1n2Cc1ccccc1`, the GI50 is 9.62 µM (inactive) in [1]; 6.68 µM (inactive) in assay [2]; 11.1 µM (inactive) in assay [3]; 3.33 µM (inactive) in [4]; 8.61 µM (inactive) in [5]; 1.49 µM (inactive) in assay [6]. Also, the GI50 in [8] was 14.2 µM (inactive); in [9], 7.46 µM (inactive); in assay [10], 0.783 µM (active); in [11] it was 1.21 µM (inactive); in assay [12], 1.55 µM (inactive); in assay [13], 3.02 µM (inactive). The GI50 was 10.5 µM (inactive) in [14], 1.16 µM (inactive) in [15] and 13 µM (inactive) in assay [16].
Regarding `O=c1[nH]c(N/N=C\C(O)C(O)C(O)CO)nc2ccccc12` (stereo not drawn), the GI50 in assay [1], in [2], in [3], in [4], in assay [5] and in [6] was > 100 µM (inactive) each time. The GI50 in assay [7], in [8], in assay [9], in assay [11], in assay [12] and in assay [13] was > 100 µM (inactive) each time. Also, the GI50 in assay [14], in assay [15] and in [16] was > 100 µM (inactive) in each case.
Consider `Cc1ccc(/C(O)=C/c2nc3ccccc3oc2=O)cc1`, for which the GI50 in [1] is > 100 µM (inactive); in [2], 12.8 µM (inactive); in assay [3], > 100 µM (inactive); in assay [5], > 100 µM (inactive); in assay [6], > 100 µM (inactive); in assay [8], 23.6 µM (inactive). Also, the GI50 in assay [9] was 45.4 µM (inactive); in assay [10] it was 16.7 µM (inactive); in assay [11], 51.2 µM (inactive); in assay [12] it was 50.1 µM (inactive); in assay [13], 19.2 µM (inactive); in assay [14], > 100 µM (inactive). In addition, the GI50 in assay [15] is 77.6 µM (inactive); in [16] it was > 100 µM (inactive).
